{"source": "ChEMBL document CHEMBL5252536", "about": "“Discovery of VU0467485/AZ13713945: An M4 PAM Evaluated as a Preclinical Candidate for the Treatment of Schizophrenia” (ACS Med Chem Lett, 2017)", "key": {"[1]": {"target": "T1, Muscarinic acetylcholine receptor M4 (Rattus norvegicus) (UniProt P08485)", "T1 sequence (whole entry)": "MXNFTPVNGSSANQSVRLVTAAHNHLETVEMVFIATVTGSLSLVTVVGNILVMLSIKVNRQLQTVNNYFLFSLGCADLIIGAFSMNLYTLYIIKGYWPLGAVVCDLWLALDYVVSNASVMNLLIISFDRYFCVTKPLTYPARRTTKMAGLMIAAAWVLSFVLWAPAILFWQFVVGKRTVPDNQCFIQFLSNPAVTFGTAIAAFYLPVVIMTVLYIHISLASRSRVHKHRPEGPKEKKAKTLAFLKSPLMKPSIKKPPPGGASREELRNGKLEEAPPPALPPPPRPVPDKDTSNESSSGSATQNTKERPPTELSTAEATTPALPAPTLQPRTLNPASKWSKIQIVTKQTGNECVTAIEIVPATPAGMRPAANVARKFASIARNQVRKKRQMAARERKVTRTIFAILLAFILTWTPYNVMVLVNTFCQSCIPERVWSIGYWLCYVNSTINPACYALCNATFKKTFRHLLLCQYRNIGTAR", "experiment": "Positive allosteric modulator activity at rat M4 receptor expressed in CHO cells co-expressing Gqi5 assessed as maximal response to ACh by calcium mobilization assay relative to contol", "type": "cell-based", "details": "filed as positive allosteric modulator"}, "[2]": {"experiment": "Positive allosteric modulator activity at dog M2 receptor expressed in CHO cells co-expressing Gqi5 assessed as maximal response to ACh by calcium mobilization assay", "type": "cell-based"}, "[3]": {"test_system": "CHO", "experiment": "Positive allosteric modulator activity at cynomolgus monkey M4 receptor expressed in CHO cells co-expressing Gqi5 assessed as maximal response to ACh by calcium mobilization assay relative to contol", "type": "cell-based", "details": "Macaca fascicularis, filed as positive allosteric modulator"}, "[4]": {"target": "T2, Cytochrome P450 3A4 (Homo sapiens, UniProt P08684)", "T2 sequence (P08684 whole entry)": "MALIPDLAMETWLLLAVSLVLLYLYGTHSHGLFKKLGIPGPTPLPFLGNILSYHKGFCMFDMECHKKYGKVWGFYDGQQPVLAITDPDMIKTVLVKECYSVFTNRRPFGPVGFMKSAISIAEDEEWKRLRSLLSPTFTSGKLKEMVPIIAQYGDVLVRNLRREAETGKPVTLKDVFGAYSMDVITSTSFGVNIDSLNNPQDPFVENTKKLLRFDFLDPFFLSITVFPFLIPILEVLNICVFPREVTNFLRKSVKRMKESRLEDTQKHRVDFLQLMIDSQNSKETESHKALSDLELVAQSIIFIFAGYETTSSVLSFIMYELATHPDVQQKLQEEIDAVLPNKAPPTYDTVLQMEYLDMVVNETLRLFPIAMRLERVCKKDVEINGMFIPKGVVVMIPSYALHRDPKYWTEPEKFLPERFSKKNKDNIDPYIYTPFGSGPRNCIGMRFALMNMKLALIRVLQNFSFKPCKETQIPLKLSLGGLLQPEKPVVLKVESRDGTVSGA", "experiment": "Inhibition of CYP34A in human liver microsomes using midazolam as substrate incubated for 15 mins in presence of NADPH by LC/MS/MS analysis", "type": "ADME, Microsome"}, "[5]": {"target": "T3, Cytochrome P450 2C9 (Homo sapiens, UniProt P11712)", "T3 sequence (P11712 whole entry)": "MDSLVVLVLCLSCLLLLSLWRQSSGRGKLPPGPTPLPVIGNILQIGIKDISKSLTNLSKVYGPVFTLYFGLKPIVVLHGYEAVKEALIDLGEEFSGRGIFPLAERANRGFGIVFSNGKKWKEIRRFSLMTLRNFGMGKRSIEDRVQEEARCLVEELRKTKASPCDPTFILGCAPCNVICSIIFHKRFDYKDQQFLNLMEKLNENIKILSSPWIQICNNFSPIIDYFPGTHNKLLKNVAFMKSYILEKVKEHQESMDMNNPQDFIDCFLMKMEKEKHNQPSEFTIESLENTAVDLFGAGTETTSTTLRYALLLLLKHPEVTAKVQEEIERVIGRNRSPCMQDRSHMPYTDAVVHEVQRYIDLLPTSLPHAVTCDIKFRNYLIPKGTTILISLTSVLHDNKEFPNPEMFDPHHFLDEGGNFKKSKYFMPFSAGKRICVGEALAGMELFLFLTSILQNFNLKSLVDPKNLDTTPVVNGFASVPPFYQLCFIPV", "experiment": "Inhibition of CYP2C9 in human liver microsomes using diclofenac as substrate incubated for 15 mins in presence of NADPH by LC/MS/MS analysis", "type": "ADME, Microsome"}, "[6]": {"target": "T4, Cytochrome P450 1A2 (Homo sapiens, UniProt P05177)", "T4 sequence (P05177 whole entry)": "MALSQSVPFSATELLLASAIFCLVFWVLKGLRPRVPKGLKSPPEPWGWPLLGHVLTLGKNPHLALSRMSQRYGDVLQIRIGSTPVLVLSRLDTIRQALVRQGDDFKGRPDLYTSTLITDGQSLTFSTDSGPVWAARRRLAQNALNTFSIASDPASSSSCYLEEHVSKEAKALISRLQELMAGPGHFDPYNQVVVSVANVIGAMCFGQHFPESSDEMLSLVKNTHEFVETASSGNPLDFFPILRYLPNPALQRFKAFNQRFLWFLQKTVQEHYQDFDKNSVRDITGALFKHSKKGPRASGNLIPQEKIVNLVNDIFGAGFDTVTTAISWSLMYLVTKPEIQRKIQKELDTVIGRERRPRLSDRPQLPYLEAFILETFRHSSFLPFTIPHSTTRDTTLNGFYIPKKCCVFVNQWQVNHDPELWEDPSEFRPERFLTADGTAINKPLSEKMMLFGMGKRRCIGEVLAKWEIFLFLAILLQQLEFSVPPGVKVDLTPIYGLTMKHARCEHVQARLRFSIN", "experiment": "Inhibition of CYP1A2 in human liver microsomes using phenacetin as substrate incubated for 15 mins in presence of NADPH by LC/MS/MS analysis", "type": "ADME, Microsome"}, "[7]": {"target": "T2, Cytochrome P450 3A4", "experiment": "Activation of CYP34A in human hepatocyte using midazolam as substrate preincubated for 5 days followed by substrate addition and measured after 1 hr by LC-MS/MS analysis", "type": "ADME, cell-based"}, "[8]": {"target": "CYP3A4 (printed CYP34A) (Homo sapiens, UniProt P08684)", "sequence (P08684 whole entry)": "as the sequence (P08684 whole entry) above", "experiment": "Activation of CYP34A in human hepatocyte using midazolam as substrate preincubated for 5 days followed by substrate addition and measured after 1 hr by LC-MS/MS analysis relative to control", "type": "ADME, cell-based", "details": "hepatocytes, probe midazolam, time 121 hrs"}, "[9]": {"experiment": "Plasma protein binding in cynomolgus monkey assessed as unbound fraction incubated for 4 hrs by LC/MS/MS analysis", "type": "ADME, cell-free, Macaca fascicularis"}, "[10]": {"experiment": "Fraction unbound in rat brain incubated for 6 hrs by LC/MS/MS analysis", "type": "ADME, tissue-based"}, "[11]": {"experiment": "Tmax in Sprague-Dawley rat at 3 mg/kg,po by LC-MS/MS analysis", "type": "ADME, organism-based", "details": "in vivo"}, "[12]": {"experiment": "Oral bioavailability in Sprague-Dawley rat at 3 mg/kg by LC-MS/MS analysis", "type": "ADME, organism-based", "details": "in vivo"}, "[13]": {"experiment": "Elimination half life in Beagle dog at 3 mg/kg,po or 1 mg/kg,iv by LC-MS/MS analysis", "type": "ADME, organism-based, Canis lupus familiaris", "details": "in vivo, read-out: beta t1/2 (converted)"}, "[14]": {"experiment": "Ratio of unbound drug concentration in Beagle dog brain to plasma at 3 mg/kg, po by LC-MS/MS analysis", "type": "ADME, organism-based, Canis lupus familiaris", "details": "read-out: K(p,uu,brain)"}, "[15]": {"target": "T3, Cytochrome P450 2C9", "experiment": "[…] of human CYP2C9 mediated drug metabolism incubated for 5 mins followed by NADPH addition measured after 1 hr by LC-UV/MS analysis relative to control", "type": "ADME", "details": "recombinant enzyme, 1.083 h, time 65 min"}, "[16]": {"test_system": "Rattus norvegicus", "experiment": "Antipsychotic activity in amphetamine-induced hyperlocomotion activity in rat assessed as minimum effective dose at 1 administered orally preincubated for 30 mins followed by amphetamine addition and measured after 60 mins by open field test", "type": "functional", "details": "1.5 h, route po, time 90 min, read-out: MED"}, "[17]": {"experiment": "Terminal plasma concentration in rat model of amphetamine-induced hyperlocomotion activity at 1 to 10 mg/kg, po measured after 1.5 hrs", "type": "ADME, organism-based", "details": "dose 1-10 mg/kg"}, "[18]": {"experiment": "Toxicity in rat assessed as effect on somatomotor parameters at 56.6 mg/kg, po measured after 6 hrs by Irwin test", "type": "organism-based", "details": "in vivo"}, "[19]": {"experiment": "Aqueous solubility of compound at pH 7.4", "type": "physicochemical", "details": "buffer"}, "[20]": {"target": "T5, Muscarinic acetylcholine receptor M2 (Rattus norvegicus, UniProt P10980)", "T5 sequence (P10980 whole entry)": "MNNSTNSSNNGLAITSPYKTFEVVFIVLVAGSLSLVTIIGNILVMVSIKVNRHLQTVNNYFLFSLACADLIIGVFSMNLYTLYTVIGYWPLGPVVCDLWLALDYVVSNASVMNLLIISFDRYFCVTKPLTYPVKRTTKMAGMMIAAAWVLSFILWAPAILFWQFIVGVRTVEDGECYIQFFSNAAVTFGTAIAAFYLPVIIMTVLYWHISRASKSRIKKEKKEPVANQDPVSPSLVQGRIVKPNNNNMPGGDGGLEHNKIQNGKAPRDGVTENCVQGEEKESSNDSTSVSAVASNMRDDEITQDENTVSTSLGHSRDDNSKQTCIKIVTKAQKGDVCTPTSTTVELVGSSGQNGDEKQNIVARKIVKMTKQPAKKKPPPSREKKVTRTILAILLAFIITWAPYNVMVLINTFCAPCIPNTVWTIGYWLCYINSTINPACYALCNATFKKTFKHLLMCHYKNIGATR", "experiment": "Positive allosteric modulator activity at rat M2 receptor expressed in CHO cells co-expressing Gqi5 assessed as maximal response to ACh by calcium mobilization assay", "type": "cell-based"}}}
{"smiles": "COc1ccc(CNC(=O)c2sc3nnc(C)c(C)c3c2N)cc1F", "values": [{"measurement": "Activity", "setting": "[1]", "result": 68.7, "unit": "%"}, {"measurement": "EC50", "setting": "[2]", "result": "> 30", "unit": "µM"}, {"measurement": "Activity", "setting": "[3]", "result": 74, "unit": "%"}, {"measurement": "IC50", "setting": "[4]", "result": "> 30", "unit": "µM"}, {"measurement": "IC50", "setting": "[5]", "result": "> 30", "unit": "µM"}, {"measurement": "IC50", "setting": "[6]", "result": "> 30", "unit": "µM"}, {"measurement": "EC50", "setting": "[7]", "result": "> 50", "unit": "µM"}, {"measurement": "Emax at 1 h", "setting": "[8]", "result": "≤ 1", "unit": "%"}, {"measurement": "fraction unbound at 4 h", "setting": "[9]", "result": 0.091}, {"measurement": "fraction unbound at 6 h", "setting": "[10]", "result": 0.037}, {"measurement": "Tmax", "setting": "[11]", "result": 1.5, "unit": "h"}, {"measurement": "bioavailability", "setting": "[12]", "result": 79, "unit": "%"}, {"measurement": "half-life", "setting": "[13]", "result": 1.3, "unit": "h"}, {"measurement": "Kp uu", "setting": "[14]", "result": 0.84}, {"measurement": "Activity", "setting": "[15]", "result": 3.5, "unit": "%"}, {"measurement": "minimal effective dose", "setting": "[16]", "result": 10, "unit": "mg/kg"}, {"measurement": "concentration at 1.5 h", "setting": "[17]", "result": 1800, "unit": "nM"}, {"measurement": "Activity", "setting": "[18]", "result": "Non-Toxic"}, {"measurement": "solubility", "setting": "[19]", "result": 2.4, "unit": "µM"}, {"measurement": "EC50", "setting": "[20]", "result": "> 30", "unit": "µM"}]}
